Data: US10597388B2, “Pyridazinone herbicides” (FMC CORPORATION, priority 2014, dated 2020)
Where two headings read alike, the source gives them in different places.

How the values were obtained:
Assay type in all cases: in vivo
[1] = tested on: pigweed (Amaranthus retroflexus); test: Test C greenhouse herbicide test, pre- and postemergence
Outline: (§1)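 Preemergence: seeds sown in a loam soil–sand blend and sprayed with test chemicals in a non-phytotoxic solvent mixture containing surfactant. Postemergence: plants grown in peat-based medium and treated at 2 to 18 cm (1- to 4-leaf stage). After 13 to 15 d in a greenhouse, injury was visually rated 0–100 against controls.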

corn (Zea mays) [2] = test: as above
Outline: as §1

soybean (Glycine max) = test: as above
Outline: as §1

[3] = tested on: blackgrass (Alopecurus myosuroides); test: as above
Outline: as §1

[4] = tested on: nutsedge, yellow (yellow nutsedge, Cyperus esculentus); test: as above
Outline: as §1

[5] = tested on: velvetleaf (Abutilon theophrasti); test: as above
Outline: as §1

[6] = tested on: waterhemp (common waterhemp, Amaranthus rudis); test: as above
Outline: as §1

[7] = tested on: foxtail, giant (giant foxtail, Setaria faberii); test: Test A greenhouse herbicide test, pre- and postemergence; conditions: Setaria faberi, 240 h; for pest or weed control at 125 g/ha: 125 g ai/ha; for pest or weed control at 500 g/ha: 500 g ai/ha, 0 to 100 scale
Outline: (§2)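 Seeds sown in loam–sand blend got a preemergence directed soil spray of compound in non-phytotoxic solvent with surfactant. Postemergence treatment was given at 2–10 cm, one- to two-leaf stage. After ~10 d in greenhouse, injury was rated visually vs untreated controls, 0 (no effect) to 100 (complete control).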

corn (Zea mays) [8] = test: as above; conditions: Zea mays, 240 h
Outline: as §2

[9] = tested on: wheat (Triticum aestivum); test: as above; conditions: Triticum aestivum, 240 h; for plant injury at 125 g/ha: 125 g ai/ha; for plant injury at 500 g/ha: 500 g ai/ha, 0 to 100 scale
Outline: as §2

[10] = Postemergence, 31 g ai/ha, 0 to 100 scale (0 no effect, 100 complete control)
[11] = Postemergence, 125 g ai/ha, scale 0 to 100, 0 is no effect, 100 is complete control
[12] = Postemergence, 250 g ai/ha, scale 0 to 100, 0 no effect, 100 complete control, 13 to 15 d
[13] = Preemergence, 31 g ai/ha, scale 0 to 100, 0 is no effect, 100 is complete control
[14] = Preemergence, 62 g ai/ha, scale 0 to 100, 0 is no effect, 100 is complete control
[15] = Preemergence, 125 g ai/ha, scale 0 to 100, 0 is no effect, 100 is complete control
[16] = Preemergence, 250 g ai/ha, scale 0 to 100, 0 no effect, 100 complete control
[17] = postemergence, 62 g ai/ha, scale 0 to 100, 0 no effect, 100 complete control

How did the “Pigweed plant response rating” value [1, 10] turn out when `Cc1cc(C)c2sc(C)c(-c3c(O)c(C)nn(C)c3=O)c2c1` [Compound 2, 5-hydroxy-2,6-dimethyl-4-(2,5,7-trimethylbenzo[b]thien-3-yl)-3(2H)-pyridazinone] was run?
Its value is 80.

What about the “Plant response rating, Pigweed” value [1, 11] of the same compound?
Its value is 90.

What about the “Plant response rating, Pigweed” value [1, 12] of the same compound?
The value was 98.

What about the “Plant response rating, Pigweed” value [1, 13] of the same compound?
The value was 100.

And the “Plant response rating, Pigweed” value [1, 14]?
The value was 100.

And the “Plant response rating, Pigweed” value [1, 15]?
Its value is 100.

What about the “Pigweed plant response rating” value [1, 16] of the same compound?
The value was 100.

And the “Pigweed plant response rating” value [1, 17]?
Its value is 60.

And the “Corn plant response rating” value (corn (Zea mays) [2]; [10])?
Its value is 0.

And the “Plant response rating, Corn” value (corn (Zea mays) [2]; [11])?
The value was 5.

What about the “Plant response rating, Corn” value (corn (Zea mays) [2]; [12]) of the same compound?
Its value is 10.

And the “Plant response rating, Corn” value (corn (Zea mays) [2]; [13])?
The value was 0.

What about the “Plant response rating, Corn” value (corn (Zea mays) [2]; [14]) of the same compound?
Its value is 0.

What about the “Plant response rating, Corn” value (corn (Zea mays) [2]; [15]) of the same compound?
Its value is 0.

And the “Corn plant response rating” value (corn (Zea mays) [2]; [16])?
Its value is 10.

What about the “Corn plant response rating” value (corn (Zea mays) [2]; [17]) of the same compound?
The value was 5.

And the “Soybean plant response rating” value (soybean (Glycine max); [10])?
Its value is 0.

And the “Plant response rating, Soybean” value (soybean (Glycine max); [11])?
The value was 50.

What about the “Plant response rating, Soybean” value (soybean (Glycine max); [12]) of the same compound?
Its value is 5.

What about the “Plant response rating, Soybean” value (soybean (Glycine max); [14]) of the same compound?
The value was 0.

What about the “Plant response rating, Soybean” value (soybean (Glycine max); [15]) of the same compound?
The value was 0.

What about the “Soybean plant response rating” value (soybean (Glycine max); [16]) of the same compound?
The value was 0.

What about the “Soybean plant response rating” value (soybean (Glycine max); [17]) of the same compound?
Its value is 0.

What about the “Blackgrass plant response rating” value [3, 10] of the same compound?
The value was 45.

And the “Plant response rating, Blackgrass” value [3, 11]?
Its value is 85.

And the “Plant response rating, Blackgrass” value [3, 12]?
Its value is 80.

And the “Plant response rating, Blackgrass” value [3, 13]?
Its value is 85.

And the “Plant response rating, Blackgrass” value [3, 14]?
Its value is 90.

What about the “Plant response rating, Blackgrass” value [3, 15] of the same compound?
The value was 95.

What about the “Blackgrass plant response rating” value [3, 16] of the same compound?
The value was 95.

What about the “Blackgrass plant response rating” value [3, 17] of the same compound?
The value was 65.

And the “Nutsedge, Yellow plant response rating” value [4, 10]?
The value was 80.

What about the “Plant response rating, Nutsedge, Yellow” value [4, 11] of the same compound?
Its value is 98.

What about the “Plant response rating, Nutsedge, Yellow” value [4, 12] of the same compound?
Its value is 98.

And the “Plant response rating, Nutsedge, Yellow” value [4, 13]?
Its value is 30.

What about the “Plant response rating, Nutsedge, Yellow” value [4, 14] of the same compound?
The value was 45.

And the “Plant response rating, Nutsedge, Yellow” value [4, 15]?
The value was 70.

What about the “Nutsedge, Yellow plant response rating” value [4, 16] of the same compound?
Its value is 95.

What about the “Nutsedge, Yellow plant response rating” value [4, 17] of the same compound?
The value was 95.

What about the “Velvetleaf plant response rating” value [5, 10] of the same compound?
The value was 100.

And the “Plant response rating, Velvetleaf” value [5, 11]?
Its value is 100.

And the “Plant response rating, Velvetleaf” value [5, 12]?
The value was 100.

What about the “Plant response rating, Velvetleaf” value [5, 14] of the same compound?
The value was 95.

And the “Plant response rating, Velvetleaf” value [5, 15]?
The value was 100.

What about the “Velvetleaf plant response rating” value [5, 16] of the same compound?
The value was 100.

And the “Velvetleaf plant response rating” value [5, 17]?
The value was 100.

What about the “Waterhemp plant response rating” value [6, 10] of the same compound?
The value was 65.

And the “Plant response rating, Waterhemp” value [6, 11]?
The value was 85.

What about the “Plant response rating, Waterhemp” value [6, 12] of the same compound?
Its value is 100.

What about the “Plant response rating, Waterhemp” value [6, 14] of the same compound?
The value was 100.

What about the “Plant response rating, Waterhemp” value [6, 15] of the same compound?
The value was 100.

What about the “Waterhemp plant response rating” value [6, 16] of the same compound?
Its value is 100.

And the “Waterhemp plant response rating” value [6, 17]?
Its value is 65.

What about the pest or weed control at 125 g/ha ([7]; post-emergence, Postemergence, visual rating after approx. 10 d, 0 to 100 scale (0 no effect, 100 complete control), read-out: Plant response rating, Foxtail, Giant) of the same compound?
Its pest or weed control at 125 g/ha is 80%.

What about the pest or weed control at 500 g/ha ([7]; post-emergence, Postemergence, 0 is no effect, 100 is complete control, read-out: Foxtail, Giant plant response rating) of the same compound?
Its pest or weed control at 500 g/ha is 90%.

And the pest or weed control at 125 g/ha ([7]; pre-emergence, Preemergence, 0 to 100 scale where 0 is no effect and 100 is complete control, read-out: Foxtail, Giant plant response rating)?
The pest or weed control at 125 g/ha was 100%.

And the pest or weed control at 500 g/ha ([7]; pre-emergence, Preemergence, 0 no effect, 100 complete control, read-out: Plant response rating, Foxtail, Giant)?
Its pest or weed control at 500 g/ha is 100%.

What about the Corn plant response rating (crop injury, 0 = no effect, 100 = complete kill) at 125 g/ha (corn (Zea mays) [8]; post-emergence, Postemergence, 125 g ai/ha, visual rating after approx. 10 d, 0 to 100 scale (0 no effect, 100 complete control)) of the same compound?
Its Corn plant response rating (crop injury, 0 = no effect, 100 = complete kill) at 125 g/ha is 0%.

And the plant injury at 500 g/ha (corn (Zea mays) [8]; post-emergence, Postemergence, 500 g ai/ha, 0 to 100 scale, 0 is no effect, 100 is complete control, read-out: Corn plant response rating)?
The plant injury at 500 g/ha was 20%.

And the plant injury at 125 g/ha (corn (Zea mays) [8]; pre-emergence, Preemergence, 125 g ai/ha, 0 to 100 scale where 0 is no effect and 100 is complete control, read-out: Corn plant response rating)?
The plant injury at 125 g/ha was 0%.

What about the Corn plant response rating (crop injury, 0 = no effect, 100 = complete kill) at 500 g/ha (corn (Zea mays) [8]; pre-emergence, Preemergence, 500 g ai/ha, 0 to 100 scale, 0 no effect, 100 complete control) of the same compound?
Its Corn plant response rating (crop injury, 0 = no effect, 100 = complete kill) at 500 g/ha is 10%.

What about the plant injury at 125 g/ha ([9]; post-emergence, Postemergence, visual rating after approx. 10 d, 0 to 100 scale (0 no effect, 100 complete control), read-out: Plant response rating, Wheat) of the same compound?
Its plant injury at 125 g/ha is 20%.

And the plant injury at 500 g/ha ([9]; post-emergence, Postemergence, 0 is no effect, 100 is complete control, read-out: Wheat plant response rating)?
Its plant injury at 500 g/ha is 20%.

And the plant injury at 125 g/ha ([9]; pre-emergence, Preemergence, 0 to 100 scale where 0 is no effect and 100 is complete control, read-out: Wheat plant response rating)?
The plant injury at 125 g/ha was 0%.

And the plant injury at 500 g/ha ([9]; pre-emergence, Preemergence, 0 no effect, 100 complete control, read-out: Plant response rating, Wheat)?
The plant injury at 500 g/ha was 0%.
